One data set concerns Earthworms. As to the kind of experiment: Albendazole induced anthelmintic activity on earthworms (paralysis and death). Format: in vivo, earthworm. The protocol:
An experiment to see how tetrahydropiperine enhances the skin permeability of anthelmintic drugs such as albendazole on intestinal worms was conducted. However, as a preliminary study towards this, tests on earthworms were conducted.
Earthworms were obtained from the Al Ameen College of Pharmacy, Bangalore. Albendazole (Zentel) was obtained from Smith Kline Beecham Pharmaceuticals, Bangalore. The aqueous test solution contained tetrahydropiperine (Tetraperine™, A proprietary product of Sabinsa Corporation, USA) of 0.1% and 0.2% w/v suspended in 0.25% w/v sodium carboxy methyl cellulose.
1. Effect of Albendazole: Earth worms of similar length and weight were divided into three groups of six worms each. […] The time of onset of paralysis was noted and the death of the worms were observed and recorded as above.

The format of data set [1] is in vitro ADME, mouse. The protocol: The drug (100 ug/ml) was applied with 0.1% (active sample) or without (control sample) of THP in the donor compartment. Subsequently the absorbencies of the fluid in the receptor compartment for the presence of BMDP and THP were measured in time intervals of 5, 10, 15, 20, 30, 45 and 60 minutes.
Franz diffusion cell was utilized in the experiment. This is an in vitro set-up prepared from the graft of the abdominal skin of mouse to evaluate absorption of drugs and nutrients through the skin. The Franz diffusion cell contains Donor and Receptor compartments. The test drug, BMDP, with or without tetrahydropiperine (Control) was applied on one side of the skin (Donor compartment). The drug's transport to the Receptor side of the skin was estimated by UV method at pre-determined time intervals. […]
The hydrated skin was mounted on Franz diffusion cell with shaved surface facing the donor compartment. […] Absorbance of each sample was measured by UV spectrophotometer at the wavelength of 256 nm. • b. […] Absorbance of each sample was measured by UV spectrophotometer at the wavelength of 256 nm.
UV absorption Spectra of BMDP solutions show absorption at 238 nm when prepared in saline with tween 20 solution. […] Tetrahydropiperine gave absorbance at 228 nm and 275 nm. • 2. The absorbance of tetrahydropiperine was minimum at 256 nm while it was good for BMDP. […]

In data set [2] the test system is tobacco cut worm, Spodoptera litura F. In words: whole plant or invertebrate. Particulars: Spodoptera litura, in Nicotiana tabacum, 48 h, read-out: PERCENT MORTALITY (Mean of 4 replications). As to the method:
The tetrahydropiperine was tested against tobacco cut worm, Spodoptera litura F. to determine its possible increased kill rate when used with Fenvalerate—a synthetic pyrethroid.
• a. Preparation of test solution—0.5 g of the test product was dissolved in 1 ml of Ethanol and made up to 100 ml in standard volumetric flask using suitable emulsifier. This solution contains 5000 ppm a.i. (0.5 percent). Further, serial dilution was made to get 0.25, 0.125 and 0.0625% of the test product. To each of these test solutions, Fenvalerate was added to get 250 ppm of Fenvalerate a.i. in the final volume. For comparison 0.5 percent of Tetrahydropiperine, Ethanol 1.0 percent solution and 250 ppm a.i. of Fenvalerate was used. • b. Bioassay—Laboratory reared 7 day old larvae of tobacco cut worm, Spodoptera litura were used in the experiment. After a series of preliminary tests the concentrations chosen for the experiment were 0.5, 0.25, 0.125 and 0.0625 percent tetrahydropiperine. Fresh castor leaves were dipped for 30 seconds in above concentrations of test and standard compounds and blank solutions. After proper drying, the treated leaves were transferred to plastic containers. To each container 5 larvae were released. This was repeated four times so as to have 20 larvae for each concentration. Larvae in control set were fed with leaves dipped in water. Observations were recorded for larval mortality after 48 hours of exposure. Results

A short description of data set [3]: Franz diffusion cell, in vitro transdermal permeation of Forskolin with or without tetrahydropiperine. Format: in vitro ADME, rat. As to the method: In vitro permeation studies of Forskholin, a diterpenoid compound which has various therapeutic effects (Bronchodilation—used in Asthma, prevents platelet aggregation, anti hypertensive, anti glaucoma and anti-inflammatory) was carried out. Fabricated Franz diffusion cells of capacity 67 and 69 ml were used for the study. Freshly excised rat abdominal skin was used for the permeation studies.
Solutions Used in the Study • a) 2.5% Forskolin in methanol. • b) 0.05% Tetrahydropiperine in 2.5% Forskolin in methanol. • c) 0.1% Tetrahydropiperine in 2.5% Forskolin in methanol. Procedure
Freshly excised rat abdominal […] was mounted on the Franz diffusion Cell, the outer layer of the skin facing the donor compartment. The receptor fluid was maintained at 35° C. using a thermostatic magnetic stirrer.
The study was conducted by replacing the medium in the receptor compartment with methanol instead of phosphate buffer. In both the receptor and donor compartment methanol was used as the medium in the permeation studies.
In the donor compartment 2 ml methanol containing 50 mg of Forskolin and tetrahydropiperine (5% of Forskolin conc.) was taken. Receptor compartment consisted of 69 ml of methanol maintained at 35° C. Permeation study was carried out for a period of 1 hr. Samples were withdrawn at 15, 30 and 60 minutes intervals and the amount of Forskholin present was analyzed by HPLC.
In the donor compartment 2 ml methanol containing 50 mg of Forskholin was taken. Receptor compartment consisted of 65 ml of methanol maintained at 35° C. Permeation study was carried out for a period of 1 hour. Samples were withdrawn at 15, 30 and 60 minutes intervals and the amount of Forskholin present was analyzed by HPLC.

For `CCCSc1ccc2nc(NC(=O)OC)[nH]c2c1` [Albendazole, reference compound], the “Time taken in minutes (Mean ± SEM), Paralysis” value with Earthworms (Albendazole 0.2% w/v alone) was 99.0 ± 3.93 min. The “time until anthelmintic activity” value with Earthworms (albendazole 0.1%) was more than 2 h; with Earthworms (albendazole 0.2%), not above 2 h.

Take `CCC(=O)OCC(=O)[C@@]1(OC(=O)CC)[C@@H](C)C[C@H]2[C@@H]3CCC4=CC(=O)C=C[C@]4(C)[C@@]3(F)[C@@H](O)C[C@@]21C` [BMDP, Betamethasone dipropionate]: the “amount of drug (BMDP) diffused in control” value in data set [1] is “undetectable”.

A word on the mortality: it is the percentage killed. `CC(C)C(C(=O)OC(C#N)c1cccc(Oc2ccccc2)c1)c1ccc(Cl)cc1` (centres unmarked) [Fenvalerate, reference compound]: the mortality at 250 ppm in data set [2] was found to be 55%.

As to `C=C[C@@]1(C)CC(=O)[C@]2(O)[C@@]3(C)[C@@H](O)CCC(C)(C)[C@@H]3[C@H](O)[C@H](OC(C)=O)[C@@]2(C)O1` [Forskolin, reference compound], the “Forskolin Release Control” value in data set [3] (Forskolin 50 mg in methanol without THP, 15 min) is on record as 1.28; in data set [3] (Forskolin without THP, 30 min), 4.05; in data set [3] (Forskolin without THP, 60 min) it was 8.45.

(Values after US6849645B2, “Method of increased bioavailability of nutrients and pharmaceutical preparations with tetrahydropiperine and its analogues and derivatives” (priority 2000, dated 2005).)
